Source: patent US20070128217A1 (priority 2003, published 2007)

What was measured:
[1] = tested on: rabbit serum obtained by immunizing a rabbit with the SARS-CoV strain Frankfurt 1; type: binding; set-up: Binding of a rabbit serum to linear peptides / Binding of a rabbit serum to looped peptides / Rabbit serum linear peptides / Rabbit serum looped peptides / Binding of a rabbit serum to linear peptides of protein N of SARS-CoV Urbani (Rabbit serum linear peptides) / Binding of a rabbit serum to looped/cyclic peptides of protein N of SARS-CoV Urbani (Rabbit serum looped peptides): unit not given here
[2] = tested on: recombinant human anti-SARS-CoV antibody 03-018; type: binding; set-up: Binding of antibody 03-018 to linear peptides of the N protein of SARS-CoV Urbani / Binding of antibody 03-018 to looped/cyclic peptides of the N protein of SARS-CoV Urbani: unit not given here
[3] = tested on: control sera (pooled serum of ten healthy LUMC hospital workers; commercial negative donor pooled serum from the Dutch bloodbank); type: binding, human; set-up: Binding of Control serum LUMC to linear peptides / Binding of Control serum Blood-bank to linear peptides / Binding of Control serum LUMC to looped peptides / Binding of Control Serum Blood-Bank to Looped peptides / Binding of Control serum LUMC to linear peptides of the protein M of SARS-CoV Urbani / Binding of Control serum Blood-bank to linear peptides of the protein M of SARS-CoV Urbani / Binding of Control serum LUMC to looped peptides of the protein M of SARS-CoV Urbani / Binding of Control Serum Blood-Bank to Looped peptides of the protein M of SARS-CoV Urbani: unit not given here
[4] = tested on: antibodies in sera from SARS patients (sera 1a, 1b, 2, 6, 37, 62, London, SARS-yellow, SARS-green); type: binding, human; set-up: Binding of serum 6 to linear peptides of protein X1 of SARS-CoV Urbani / Binding of serum 37 to linear peptides of protein X1 of SARS-CoV Urbani / Binding of serum 6 to looped/cyclic peptide (PEPSCAN-ELISA) / Binding of serum 37 to looped/cyclic peptide (PEPSCAN-ELISA) / Binding of serum 37 to looped/cyclic peptides of protein X1 of SARS-CoV Urbani / Binding of serum 6 to linear peptides of protein X2 / Binding of serum 37 to linear peptides of protein X2 / Binding of serum 37 to looped/cyclic peptides of protein X2 of SARS-CoV Urbani / Binding of serum 6 to linear peptides of protein M of SARS-CoV Urbani / Binding of serum 37 to linear peptides of protein M of SARS-CoV Urbani / Binding of serum 6 to looped/cyclic peptides of protein M of SARS-CoV Urbani / Binding of serum 37 to looped/cyclic peptides of protein M of SARS-CoV Urbani / Binding of serum 6 to linear peptides of protein X3 of SARS-CoV Urbani / Binding of serum 37 to linear peptides of protein X3 of SARS-CoV Urbani / Binding of serum 37 to looped/cyclic peptides of protein X3 of SARS-CoV Urbani / Binding of serum 6 to linear peptides of protein X4 of SARS-CoV Urbani / Binding of serum 37 to linear peptides of protein X4 of SARS-CoV Urbani / Binding of serum 37 to looped/cyclic peptides of protein X4 of SARS-CoV Urbani / Binding of serum 6 to linear peptides of protein X5 of SARS-CoV Urbani / Binding of serum 37 to linear peptides of protein X5 of SARS-CoV Urbani / Binding of serum 37 to looped/cyclic peptides of protein X5 of SARS-CoV Urbani / Binding of serum 6 to linear peptides of protein N of SARS-CoV Urbani / Binding of serum 37 to linear peptides of protein N of SARS-CoV Urbani / Binding of serum 6 to linear peptide (PEPSCAN-ELISA) / Binding of serum 1a to looped/cyclic peptides of protein N of SARS-CoV Urbani / Binding of serum 1b to looped/cyclic peptides of protein N of SARS-CoV Urbani / Binding of serum 2 to looped/cyclic peptides of protein N of SARS-CoV Urbani / Binding of serum 6 to looped/cyclic peptides of protein N of SARS-CoV Urbani / Binding of serum 37 to looped/cyclic peptides of protein N of SARS-CoV Urbani / Binding of serum 62 to looped/cyclic peptides of protein N of SARS-CoV Urbani / Binding of serum London to looped/cyclic peptides of protein N of SARS-CoV Urbani / Binding of serum SARS-green to looped/cyclic peptides of protein N of SARS-CoV Urbani: unit not given here

Sequence	Binding of a rabbit serum to linear peptides of protein N of SARS-CoV Urbani (Rabbit serum linear peptides) [1]	Binding of a rabbit serum to looped/cyclic peptides of protein N of SARS-CoV Urbani (Rabbit serum looped peptides) [1]	Binding of antibody 03-018 to linear peptides of the N protein of SARS-CoV Urbani [2]	Binding of antibody 03-018 to looped/cyclic peptides of the N protein of SARS-CoV Urbani [2]	Binding of serum 1a to linear peptides of protein N of SARS-CoV Urbani [4]	Binding of serum 1a to looped/cyclic peptides of protein N of SARS-CoV Urbani [4]	Binding of serum 1b to linear peptides of protein N of SARS-CoV Urbani [4]	Binding of serum 1b to looped/cyclic peptides of protein N of SARS-CoV Urbani [4]	Binding of serum 2 to linear peptides of protein N of SARS-CoV Urbani [4]	Binding of serum 2 to looped/cyclic peptides of protein N of SARS-CoV Urbani [4]	Binding of serum 6 to linear peptides of protein N of SARS-CoV Urbani [4]	Binding of serum 6 to looped/cyclic peptides of protein N of SARS-CoV Urbani [4]	Binding of serum 37 to linear peptides of protein N of SARS-CoV Urbani [4]	Binding of serum 37 to looped/cyclic peptides of protein N of SARS-CoV Urbani [4]	Binding of serum 62 to linear peptides of protein N of SARS-CoV Urbani [4]	Binding of serum 62 to looped/cyclic peptides of protein N of SARS-CoV Urbani [4]	Binding of serum London to linear peptides of protein N of SARS-CoV Urbani [4]	Binding of serum London to looped/cyclic peptides of protein N of SARS-CoV Urbani [4]	Binding of serum SARS-green to linear peptides of protein N of SARS-CoV Urbani [4]	Binding of serum SARS-green to looped/cyclic peptides of protein N of SARS-CoV Urbani [4]	also measured
GAIKLDDKDPQFKDN	0.1	0.3	0.1	0.2	0.2	0.3	0.1	0.2	0.2	0.4	0.2	0.2	0.7	0.5	0.9	0.5	0.6	0.4	0.5	0.8	Control Serum Blood-Bank Looped peptides [3]: 0.6; Control serum Blood-bank linear peptides [3]: 0.7; Control serum LUMC linear peptides [3]: 0.7; Control serum LUMC looped peptides [3]: 0.5; Binding of serum SARS-yellow to linear peptides of protein N of SARS-CoV Urbani [4]: 0.7; Binding of serum SARS-yellow to looped/cyclic peptides of protein N of SARS-CoV Urbani [4]: 0.5
GANKEGIVWVATEGA	0.2	0.5	0.1	0.2	0.2	0.2	0.1	0.1	0.2	0.2	0.1	0.1	0.7	0.5	0.6	0.3	0.4	0.3	0.2	0.2	Binding of Control Serum Blood-Bank to Looped peptides [3]: 0.4; Binding of Control serum Blood-bank to linear peptides [3]: 0.5; Binding of Control serum LUMC to linear peptides [3]: 0.5; Binding of Control serum LUMC to looped peptides [3]: 0.5; Binding of serum SARS-yellow to linear peptides of protein N of SARS-CoV Urbani [4]: 0.6; Binding of serum SARS-yellow to looped/cyclic peptides of protein N of SARS-CoV Urbani [4]: 0.4
GARPKQRRPQGLPNN	0.1	0.2	0.1	0.2	0.2	0.3	0.1	0.1	0.2	0.4	0.1	0.3	0.4	0.4	0.6	0.5	0.5	0.4	0.3	0.4	Binding of Control Serum Blood-Bank to Looped peptides [3]: 0.5; Binding of Control serum Blood-bank to linear peptides [3]: 0.7; Binding of Control serum LUMC to linear peptides [3]: 0.7; Binding of Control serum LUMC to looped peptides [3]: 0.6; Binding of serum SARS-yellow to linear peptides of protein N of SARS-CoV Urbani [4]: 0.6; Binding of serum SARS-yellow to looped/cyclic peptides of protein N of SARS-CoV Urbani [4]: 0.2
